Broadly, the Emax is the size of the effect at its maximum, as opposed to the concentration needed. What is called EC50 is the concentration that produces a half-maximal response. A lower EC50 goes with greater potency.

The assay concerns the target T1, Human GLP-1 receptor (Homo sapiens, UniProt P43220).
T1 construct: expressed in transfected cells
Kind of assay: Measurement of GLP-1 receptor agonist activity (cAMP assay). In kind it is cell-based. To be noted: cAMP increase in GLP-1 R/CHO-K1 cells, 2 nM human GLP-1 (7-36) = 100%, DMSO only = 0%; for Emax: CHO-K1, maximum effect, read-out: Emax. Summed up: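 Agonism measured as cAMP accumulation by time-resolved FRET immunoassay in CHO-K1 cells stably expressing human GLP-1 receptor. Cells treated for 1 h at 37 °C with compound and forskolin (400 μM stock), in buffer containing the PDE inhibitors IBMX (0.1 mM) and RO20-1724 (0.2 mM).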
(Cyclic AMP is a second messenger, typically raised through Gs and lowered through Gi signalling.)

SMILES strings stand for the structures.

T1 sequence (P43220 24-463): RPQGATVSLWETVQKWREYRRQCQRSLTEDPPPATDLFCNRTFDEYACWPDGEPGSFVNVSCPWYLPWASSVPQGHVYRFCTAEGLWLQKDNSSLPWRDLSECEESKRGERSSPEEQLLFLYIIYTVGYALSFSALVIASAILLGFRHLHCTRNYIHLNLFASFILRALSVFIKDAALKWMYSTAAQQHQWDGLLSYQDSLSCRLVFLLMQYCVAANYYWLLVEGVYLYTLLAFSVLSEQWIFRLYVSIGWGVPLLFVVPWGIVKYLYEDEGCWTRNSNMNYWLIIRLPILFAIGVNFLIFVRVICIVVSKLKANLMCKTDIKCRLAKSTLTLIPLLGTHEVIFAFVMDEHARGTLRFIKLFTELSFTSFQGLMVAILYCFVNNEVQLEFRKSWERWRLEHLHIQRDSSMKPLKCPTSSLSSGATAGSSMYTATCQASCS

`C[C@H]1c2nc(OCc3ccccc3Cl)c(C(F)(F)F)cc2CCN1Cc1nc2ccc(C(=O)O)nc2n1C[C@@H]1CCO1` [Compound I-287]: the Emax was 116% and it took 0.103 nM to reach a half-maximal effect (EC50).

With `C[C@H]1c2nc(OCc3ccc(F)cc3F)c(C(F)(F)F)cc2CCN1Cc1nc2ccc(C(=O)O)nc2n1C[C@@H]1CCO1` [Compound I-288], the Emax was 115% and it took 0.171 nM to reach a half-maximal effect (EC50).

Regarding `C[C@H]1c2nc(OCc3ccc(OC(F)F)cc3F)c(C(F)(F)F)cc2CCN1Cc1nc2ccc(C(=O)O)nc2n1C[C@@H]1CCO1` [Compound I-289], the maximal effect (Emax) was found to be 117% and the half-maximal effective concentration (EC50) was determined as 0.311 nM.

With `C[C@H]1c2nc(OCc3ccc(F)cc3)c(C(F)(F)F)cc2CCN1Cc1nc2ccc(C(=O)O)nc2n1C[C@@H]1CCO1` [Compound I-290], the maximum response (Emax) came to 118% and the EC50 was 0.266 nM.

`C[C@H]1c2nc(OCc3c(F)cc(Cl)cc3F)c(C(F)(F)F)cc2CCN1Cc1nc2ccc(C(=O)O)nc2n1C[C@@H]1CCO1` [Compound I-291]: the Emax came to 120% and the 50% effective concentration (EC50) came to 0.0864 nM.

Consider `C[C@H]1c2nc(OCc3c(F)cc(F)cc3F)c(C(F)(F)F)cc2CCN1Cc1nc2ccc(C(=O)O)nc2n1C[C@@H]1CCO1` [Compound I-292], for which the maximum response (Emax) is 121% and it took 0.146 nM to reach a half-maximal effect (EC50).

On to `O=C(O)c1ccc2nc(CN3CCc4cc(C(F)(F)F)c(OCc5ccc(Cl)cc5)nc4C3)n(C[C@@H]3CCO3)c2c1F` [Compound I-294], for which the Emax came out at 97.7%.

On to `Cc1ccc(COc2nc3c(cc2C(F)(F)F)CCN(Cc2nc4ccc(C(=O)O)c(F)c4n2C[C@@H]2CCO2)C3)cc1` [Compound I-295], for which the Emax is 108% and the midpoint of the response, the EC50, lay at 1.29 nM.

Take `COc1cc(Cl)ccc1COc1nc2c(cc1C(F)(F)F)CCN(Cc1nc3ccc(C(=O)O)c(F)c3n1C[C@@H]1CCO1)C2` [Compound I-296]: the Emax is 117%.

`O=C(O)c1ccc2nc(CN3CCc4cc(C(F)(F)F)c(OCc5ccc(F)cc5F)nc4C3)n(C[C@@H]3CCO3)c2c1F` [Compound I-297]: the Emax turned out to be 102% and the concentration giving a half-maximal response (EC50) worked out at 0.818 nM.

For the compound `O=C(O)c1ccc2nc(CN3CCc4cc(C(F)(F)F)c(OCc5ccc(Cl)cc5Cl)nc4C3)n(C[C@@H]3CCO3)c2c1F` [Compound I-298], the Emax was found to be 109% and the EC50 turned out to be 0.317 nM.

With `O=C(O)c1ccc2nc(CN3CCc4cc(C(F)(F)F)c(OCc5cc(F)c(Cl)cc5F)nc4C3)n(C[C@@H]3CCO3)c2c1F` [Compound I-299], the Emax was found to be 115% and the concentration for a half-maximal effect (EC50) was determined as 0.42 nM.

Consider `N#Cc1ccc(COc2nc3c(cc2C(F)(F)F)CCN(Cc2nc4ccc(C(=O)O)c(F)c4n2C[C@@H]2CCO2)C3)c(F)c1` [Compound I-300], for which the Emax was 112%.

With `O=C(O)c1ccc2nc(CN3CCc4cc(C(F)(F)F)c(OCc5c(F)cc(Cl)cc5F)nc4C3)n(C[C@@H]3CCO3)c2c1F` [Compound I-301], the maximal response (Emax) came out at 117%.

On to `O=C(O)c1ccc2nc(CN3CCc4cc(C(F)(F)F)c(OCc5ccc(Cl)cc5)nc4C3)n(C[C@@H]3CCO3)c2n1` [Compound I-302], for which the Emax was 110% and the response was half-maximal at 1.76 nM (EC50).

Take `COc1cc(Cl)ccc1COc1nc2c(cc1C(F)(F)F)CCN(Cc1nc3ccc(C(=O)O)nc3n1C[C@@H]1CCO1)C2` [Compound I-303]: the Emax was found to be 119% and the EC50 worked out at 0.681 nM.

On to `O=C(O)c1ccc2nc(CN3CCc4cc(C(F)(F)F)c(OCc5ccc(Cl)cc5Cl)nc4C3)n(C[C@@H]3CCO3)c2n1` [Compound I-304], for which the Emax was found to be 115% and the EC50 came out at 0.869 nM.

Turning to `O=C(O)c1ccc2nc(CN3CCc4cc(C(F)(F)F)c(OCc5cc(F)c(Cl)cc5F)nc4C3)n(C[C@@H]3CCO3)c2n1` [Compound I-305], the maximal effect (Emax) was determined as 107% and the EC50 is 0.949 nM.

With `O=C(O)c1ccc2nc(CN3CCc4cc(C(F)(F)F)c(OCc5ccc(Cl)cc5F)nc4C3)n(C[C@@H]3CCO3)c2n1` [Compound I-306], the Emax stood at 98.7% and the EC50 was 0.876 nM.

Take `C[C@H]1c2nc(OCc3ccc(F)cc3)c(C(F)(F)F)cc2CCN1Cc1nc2c(F)cc(C(=O)O)cc2n1C[C@@H]1CCO1` [Compound I-307]: the Emax turned out to be 115% and the EC50 was 0.0609 nM.

Take `C[C@H]1c2nc(OCc3ccc(F)cc3)c(C(F)(F)F)cc2CCN1Cc1nc2ccc(C(=O)O)c(F)c2n1C[C@@H]1CCO1` [Compound I-308]: the Emax is 115% and the response was half-maximal at 0.0871 nM (EC50).

As to `C[C@H]1c2cc(OCc3ccc(Cl)cn3)c(Cl)cc2CCN1Cc1nc2ccc(C(=O)O)cc2n1C[C@@H]1CCO1` [Compound I-309], the Emax turned out to be 84.3% and a half-maximal response (EC50) required 2.28 nM.

In the case of `COc1cc(Cl)ccc1COc1cc2c(cc1Cl)CCN(Cc1nc3ccc(C(=O)O)cc3n1C[C@@H]1CCO1)[C@H]2C` [Compound I-310], the Emax came to 91% and the EC50 turned out to be 0.415 nM.

For the compound `C[C@H]1c2cc(OCc3ccc(Cl)cc3Cl)c(Cl)cc2CCN1Cc1nc2ccc(C(=O)O)cc2n1C[C@@H]1CCO1` [Compound I-311], the Emax is 124% and the EC50 was found to be 0.972 nM.

For the compound `C[C@H]1c2cc(OCc3c(F)cc(Cl)cc3F)c(Cl)cc2CCN1Cc1nc2ccc(C(=O)O)cc2n1C[C@@H]1CCO1` [Compound I-312], the Emax is 102% and a half-maximal effect (EC50) was put at 2.03 nM.

In the case of `Cc1ccc(COc2cc3c(cc2Cl)CCN(Cc2nc4ccc(C(=O)O)nc4n2C[C@@H]2CCO2)[C@H]3C)cc1` [Compound I-313], the Emax worked out at 94% and the concentration for a half-maximal effect (EC50) was determined as 7.87 nM.

As to `COc1cc(Cl)ccc1COc1cc2c(cc1Cl)CCN(Cc1nc3ccc(C(=O)O)nc3n1C[C@@H]1CCO1)[C@H]2C` [Compound I-314], the maximal response (Emax) was found to be 98.3% and a half-maximal response (EC50) required 0.537 nM.

Take `C[C@H]1c2cc(OCc3ccc(Cl)cc3F)c(Cl)cc2CCN1Cc1nc2ccc(C(=O)O)nc2n1C[C@@H]1CCO1` [Compound I-315]: the Emax stood at 94.3% and the midpoint of the response, the EC50, lay at 2.1 nM.

`C[C@H]1c2cc(OCc3ccc(Cl)cc3Cl)c(Cl)cc2CCN1Cc1nc2ccc(C(=O)O)nc2n1C[C@@H]1CCO1` [Compound I-316]: the Emax was 117% and the response was half-maximal at 1.66 nM (EC50).

For `Cc1ccc(COc2cc3c(cc2Cl)CCN(Cc2nc4ccc(C(=O)O)c(F)c4n2C[C@@H]2CCO2)[C@H]3C)cc1` [Compound I-317], the Emax is 97.7% and it took 2.56 nM to reach a half-maximal effect (EC50).

For the compound `COc1ccc(COc2cc3c(cc2Cl)CCN(Cc2nc4ccc(C(=O)O)c(F)c4n2C[C@@H]2CCO2)[C@H]3C)cc1` [Compound I-318], the maximum response (Emax) came to 91.3% and the concentration for a half-maximal effect (EC50) is 4.55 nM.

`C[C@H]1c2cc(OCc3ccc(Cl)cc3)c(Cl)cc2CCN1Cc1nc2ccc(C(=O)O)c(F)c2n1C[C@@H]1CCO1` [Compound I-319]: the Emax amounted to 95.3% and the concentration for a half-maximal effect (EC50) was 2.43 nM.

As to `C[C@H]1c2cc(OCc3ccc(Cl)cn3)c(Cl)cc2CCN1Cc1nc2ccc(C(=O)O)c(F)c2n1C[C@@H]1CCO1` [Compound I-320], the Emax was 90.3% and the EC50 amounted to 1.63 nM.

On to `C[C@H]1c2cc(OCc3ccc(C4CC4)cc3)c(Cl)cc2CCN1Cc1nc2ccc(C(=O)O)c(F)c2n1C[C@@H]1CCO1` [Compound I-321], for which the Emax stood at 84% and the EC50 was determined as 9.85 nM.

For the compound `C[C@H]1c2cc(OCc3ccccc3Cl)c(Cl)cc2CCN1Cc1nc2ccc(C(=O)O)c(F)c2n1C[C@@H]1CCO1` [Compound I-322], the maximal effect (Emax) was 89% and the concentration giving a half-maximal response (EC50) amounted to 3.51 nM.

On to `C[C@H]1c2cc(OCc3ccc(F)cc3F)c(Cl)cc2CCN1Cc1nc2ccc(C(=O)O)c(F)c2n1C[C@@H]1CCO1` [Compound I-323], for which the Emax stood at 101% and the 50% effective concentration (EC50) was 1.7 nM.

Consider `C[C@H]1c2cc(OCc3ccc(Cl)cc3F)c(Cl)cc2CCN1Cc1nc2ccc(C(=O)O)c(F)c2n1C[C@@H]1CCO1` [Compound I-324], for which the Emax was 100% and a half-maximal effect (EC50) was put at 0.466 nM.

For the compound `C[C@H]1c2cc(OCc3ccc(Cl)cc3Cl)c(Cl)cc2CCN1Cc1nc2ccc(C(=O)O)c(F)c2n1C[C@@H]1CCO1` [Compound I-325], the Emax worked out at 105% and a half-maximal response (EC50) required 0.655 nM.

On to `C[C@H]1c2cc(OCc3cc(F)c(Cl)cc3F)c(Cl)cc2CCN1Cc1nc2ccc(C(=O)O)c(F)c2n1C[C@@H]1CCO1` [Compound I-326], for which the Emax was 109% and it took 1.31 nM to reach a half-maximal effect (EC50).

For the compound `C[C@H]1c2cc(OCc3ccc(OC(F)F)cc3F)c(Cl)cc2CCN1Cc1nc2ccc(C(=O)O)c(F)c2n1C[C@@H]1CCO1` [Compound I-327], the maximal response (Emax) came to 100% and a half-maximal response (EC50) required 1.06 nM.

Consider `C[C@H]1c2cc(OCc3c(F)cc(F)cc3F)c(Cl)cc2CCN1Cc1nc2ccc(C(=O)O)c(F)c2n1C[C@@H]1CCO1` [Compound I-328], for which the Emax worked out at 87.3% and the EC50 was found to be 1.73 nM.

For `C[C@H]1c2cc(OCc3c(F)cc(Cl)cc3F)c(Cl)cc2CCN1Cc1nc2ccc(C(=O)O)c(F)c2n1C[C@@H]1CCO1` [Compound I-329], the Emax was found to be 96.7% and the EC50 is 1.16 nM.

Turning to `Cc1ccc(COc2cc3c(cc2Cl)CCN(Cc2nc4c(F)cc(C(=O)O)cc4n2C[C@@H]2CCO2)[C@H]3C)cc1` [Compound I-330], the Emax turned out to be 93% and a half-maximal effect (EC50) was put at 1.22 nM.

As for `COc1ccc(COc2cc3c(cc2Cl)CCN(Cc2nc4c(F)cc(C(=O)O)cc4n2C[C@@H]2CCO2)[C@H]3C)cc1` [Compound I-331], the Emax is 102% and a half-maximal effect (EC50) was put at 2.7 nM.

Turning to `C[C@H]1c2cc(OCc3ccc(Cl)cc3)c(Cl)cc2CCN1Cc1nc2c(F)cc(C(=O)O)cc2n1C[C@@H]1CCO1` [Compound I-332], the Emax was determined as 105% and the EC50 came out at 1.38 nM.

Values taken from patent US20240217966A1, “PHARMACEUTICAL COMPOSITION CONTAINING GLP-1 RECEPTOR AGONIST HAVING FUSED RING” (Shionogi & Co., Ltd., priority 2021, published 2024).
